# Values of other authors, collected in US20170056383A1, “TOPICAL HERPES PAIN TREATMENT AND COMPOSITION” (priority 2015, published 2017).
# System: Herpes Simplex Virus lesions
# Details: applied to the lesion
smiles,measurement,value
CCOC(=O)c1ccc(N)cc1 [benzocaine],active working time,about 15 minutes
